Columns and labels:
[1] = test system: human cord blood mast cells; conditions: cited from earlier work
[2] = test system: tyrosine hydroxylase expression; experiment: MPTP mouse model: tyrosine hydroxylase immunohistochemistry on coronal brain sections; assay type: in vivo, C57BL/6 mice; conditions: MPTP + masitinib 2×5 mg/kg; 5 μm-thick coronal sections
Description: The 5 μM-thick coronal sections were deparaffinized and hydrated, Endogenous peroxydase were inhibited with a dual endogenous enzyme block solution (Cat #S2003, DakoCytonation). Non specific protein binding was blocked with 1% BSA in PBS, pH=7,4. […] Peroxidase staining was obtained using the AbCys Histogreen substrate kit (Cat #E109, AbCys) and counterstained with a Neutral Red solution. After dehydration the sections were cover-slipped with Eukitt®.

[3] = test system: monoamine oxidase; experiment: MPTP mouse model: monoamine oxidase fluorometric assay of total brain protein extract; conditions: for Monoamine oxidase fluorometric assay: total brain protein extract, control = 100
[4] = test system: tyrosine hydroxylase expression; experiment: MPTP mouse model: tyrosine hydroxylase ELISA assay of total brain protein extract; conditions: for Mean expression of tyrosine hydroxylase: ELISA, control 0.275
Description: The microliter plate wells were coated overnight at 4° C. with 5 μg of total brain protein extract. All unbound sites were blocked with a blocking buffer 10% FCS in PBS 1 hour at room temperature. Then, the anti-tyrosine hydroxylase rabbit polyclonal antibody, diluted 1:1000 was added for 2 hours at room temperature.

[5] = test system: C57BL/6 mice; experiment: Mortality after MPTP intoxication; assay type: in vivo; conditions: 24 hours after treatment by the MPTP
Source text: Brain samples were collected after mice anesthesia and sacrifice.

Row | SMILES | FccRI-mediated degranulation of human cord blood mast cells [1] | attenuation of tyrosine hydroxylase destruction by immunohistochemistry [2] | Monoamine oxidase fluorometric assay ([3]; MPTP + masitinib 2 × 5 mg/kg) | activity of monoamine oxidase with respect to the control group ([3]; MPTP in combination with masitinib) | decrease of tyrosine hydroxylase expression in response to MPTP treatment ([4]; MPTP + masitinib 2×5 mg/kg cohort) | Mean expression of tyrosine hydroxylase ([4]; MPTP + masitinib 2 × 5 mg/kg per os, day -7 to day 7) | Mean expression of tyrosine hydroxylase ([4]; masitinib alone 2 × 30 mg/kg per os, no MPTP) | basal expression of tyrosine hydroxylase compared with control ([4]; masitinib alone, no MPTP) | mortality [5] | Monoamine oxidase fluorometric assay ([3]; MPTP alone) | Mean expression of tyrosine hydroxylase ([4]; MPTP alone (4 × 20 mg/kg), solvent treated)
1 | Cc1ccc(NC(=O)c2ccc(CN3CCN(C)CC3)cc2)cc1Nc1nc(-c2cccnc2)cs1 [Masitinib, 4-(4-methylpiperazin-1-ylmethyl)-N-[4-methyl-3-(4-pyridin-3ylthiazol-2-ylamino)phenyl]benzamide] | inhibition | reproducible | 115 | maintained | significantly diminished decrease | 0.215 | 0.225 | did not modify significantly | – | – | –
2 | CN1CC=C(c2ccccc2)CC1 [MPTP, 1-methyl-4-phenyl-1,2,3,6-tetrahydropyridine, reference compound] | – | – | – | – | – | – | – | – | No mortality | 108 | 0.175
